# Data: US20230226021A1, “ORAL FORMULATIONS OF PYRROLIDINE DERIVATIVES” (ObsEva S.A., priority 2013, published 2023)
# Assay: Qualitative solubility/crystallisation tests on 15 mg scale
# Format: physicochemical
# From the text: The E/Z ratio pre and post dry-flash remain in the range of 30/70 to 40/60. Furthermore, such an approach should be considered on the basis of the scale at which the operation has to be carried out. On a 20 L scale, this operation would not be a time saving approach.
compound,measurement,setting,value
"CO/N=C1/C[C@@H](CO)N(C(=O)c2ccc(-c3ccccc3C)cc2)C1 [(3Z,5S), (3Z,5S)-5-(hydroxymethyl)-1-[(2′-methyl-1,1′-biphenyl-4-yl)carbonyl]pyrrolidin-3-one-O-methyloxime]","Qualitative solubility, Dissolves in","DIPE, hot",40 vol hot
same,"Qualitative solubility, Dissolves in","IPA, hot",4 vol hot
same,"Qualitative solubility, Dissolves in","MIBK, hot",4 vol hot
same,"Qualitative solubility, Dissolves in","THF, cold",4 vol cold
same,"Qualitative solubility, Dissolves in / Comment",heptanes,insoluble in 20 vol
same,"Qualitative solubility, Dissolves in","tBuOH, hot",6 vol hot
same,"Qualitative solubility, Dissolves in","toluene, cold",2 vol cold
